The values that follow come from US12193444B2, “Insecticidal composition and use thereof” (ADAMA MAKHTESHIM LTD., priority 2018, dated 2025).

Data set [1] in a line: Accelerated storage stability: degradation of active ingredients after 14 days at 54° C. In kind it is physicochemical. The procedure:
In some embodiments, the percentage of degradation is calculated based on the percentage of cartap and/or emamectin by weight based on the total weight of the stable composition before and after storage. […]
In addition, two different levels of water content were measured, content (a) less than 0.2% and b) from more than 0.3% to less than 0.5%.
In example 1, the concentrations of the cartap and emamectin were measured after 14 days storage at 54° C.
For GR composition, it was observed that the failed batches are associated with the bulging of the pouch under accelerated storage. For study of accelerated storage at 54° C. for 14 days, the sample is kept in a sealed tri-laminated aluminum pouch and after storage, the visual observations are done to observe the pouch bulging, if any. Comparative rating was done, where more number of stars denotes more bulging. From table 5, it is clear that, for the storage stability samples of pH 5.1, 4.7, 4.1 and 3.5 (for both the processes) samples with water content of less or equal to 0.2% water content by weight based on the total weight of the stable composition, have not shown any bulging.

For data set [2] the following is noted: cited from earlier work.
[3] abbreviates: pH (1% Aq.) 3.5, water content <0.2 % w/w.
[4] abbreviates: pH (1% Aq.) 3.5, water content >0.3 to <0.5 % w/w.
The mark [5] stands for this setting: pH (1% Aq.) 4.1, water content <0.2 % w/w.
Where [6] appears, read: pH (1% Aq.) 4.1, water content >0.3 to <0.5 % w/w.
[7] abbreviates: pH (1% Aq.) 4.7, water content <0.2 % w/w.
[8] abbreviates: pH (1% Aq.) 4.7, water content >0.3 to <0.5 % w/w.
Setting [9] is: pH (1% Aq.) 5.1, water content <0.2 % w/w.
[10] abbreviates: pH (1% Aq.) 5.1, water content >0.3 to <0.5 % w/w.
The mark [11] stands for this setting: pH (1% Aq.) 5.5, water content <0.2 % w/w.
The mark [12] stands for this setting: pH (1% Aq.) 5.5, water content >0.3 to <0.5 % w/w.
[13] abbreviates: pH (1% Aq.) 5.8, water content <0.2 % w/w.
Setting [14] is: pH (1% Aq.) 5.8, water content >0.3 to <0.5 % w/w.

Counter-ions that a name gives are not always drawn.

On to `CN(C)C(CSC(N)=O)CSC(N)=O` [Cartap Hydrochloride, S,S′-(2-dimethylaminotrimethylene) bis(thiocarbamate)], for which the “% Cartap Hydrochloride degradation (14 days storage, 54° C.) Process 1” value in data set [1] (setting [3]) is 0%; in data set [1] (setting [4]) it was 0%; in data set [1] (setting [7]), 2.46%; in data set [1] (setting [8]), 3.63%; in data set [1] (setting [9]), 2.40%; in data set [1] (setting [10]), 4.05%. The “% Cartap Hydrochloride degradation (14 days storage, 54° C.) Process 1” value in data set [1] (setting [11]) is on record as 0.00%; in data set [1] (setting [12]), 3.30%; in data set [1] (setting [13]), 3.16%; in data set [1] (setting [14]), 4.94%. The “% Cartap Hydrochloride degradation (14 days storage, 54° C.) Process 2” value in data set [1] (setting [3]) was found to be 2.27%; in data set [1] (setting [4]), 2.80%; in data set [1] (setting [5]), 0.23%; in data set [1] (setting [6]) it was 2.80%; in data set [1] (setting [9]), 1.67%; in data set [1] (setting [10]), 1.22%. Further, the “% Cartap Hydrochloride degradation (14 days storage, 54° C.) Process 2” value in data set [1] (setting [13]) was 1.09%; in data set [1] (setting [14]) it was 6.48%.
With “(4″R)-5-O-demethyl-4″-deoxy-4″-(methylamino)avermectin [Emamectin]”, the “% Emamectin degradation (14 Days Storage, 54° C.) Process 1” value in data set [1] (setting [3]) came to 1.9%; in data set [1] (setting [4]) it was 13%; in data set [1] (setting [5]) it was 0.95%; in data set [1] (setting [6]) it was 14.45%; in data set [1] (setting [7]), 6.14%; in data set [1] (setting [8]), 17.1%. In addition, the “% Emamectin degradation (14 Days Storage, 54° C.) Process 1” value in data set [1] (setting [9]) amounted to 7.98%; in data set [1] (setting [10]), 12.12%; in data set [1] (setting [11]) it was 8.33%; in data set [1] (setting [12]), 40.96%; in data set [1] (setting [13]), 16.7%; in data set [1] (setting [14]) it was 70.74%. For the same compound, the “% Emamectin degradation (14 Days Storage, 54° C.) Process 2” value came to 4.49% in data set [1] (setting [3]); 13.97% in data set [1] (setting [4]); 2.3% in data set [1] (setting [5]); 5.02% in data set [1] (setting [6]); 2.38% in data set [1] (setting [7]); 7.31% in data set [1] (setting [8]). Further, the “% Emamectin degradation (14 Days Storage, 54° C.) Process 2” value in data set [1] (setting [9]) is listed as 4.49%; in data set [1] (setting [10]), 27.2%; in data set [1] (setting [11]), 6.89%; in data set [1] (setting [12]) it was 24.63%; in data set [1] (setting [13]) it was 20.2%; in data set [1] (setting [14]), 26.59%. Besides, the decomposition of emamectin entry in data set [2] (highly unstable, decomposes rapidly) was “about 25%”. Also, the stability to hydrolysis result in data set [2] (pH 5, 6, 7 and 8 (25° C.)) is listed as “stable to hydrolysis”.
